In patent US20110125050A1, “Multiple-Electrode and Metal-Coated Probes” (THE TRUSTEES OF THE UNIVERSITY OF PENNSYLVANIA, priority 2004, published 2011):

Tests used:
GABAA receptor = experiment: CNP-recorded membrane potential of HT-22 cells during pharmacological stimulation (GABA, bicuculline); assay type: cell-based, mouse; conditions: for hyperpolarization from the RMP: 12 mM GABA in bath; for time for cell to return to its RMP: constant HBSS perfusion
Description: Recording Cellular Responses to Pharmacological Stimuli. In addition to monitoring predictable cell membrane potential changes caused by ionic enrichment, CNPs were utilized to electrically record cell responses to pharmacological stimuli. Y-aminobutyric acid (GABA), a principal inhibitory neurotransmitter in the mammalian central nervous system which acts as an agonist for the membrane-bound GABAA receptor, was administered. When GABA binds to the GABAA receptor, the cell hyperpolarizes as a result of Cl− ion influx due to the opening of the ligand-gated Cl− ion channel. However, the hyperpolarization can be blocked by perfusing cells with bicuculline (BIC), a competitive antagonist for the GABAA receptor which binds to the GABAA receptor and prevents it from opening even in the presence of GABA.
FIG. 10A illustrates how an HT-22 cell responded when GABA was added to the cell bath (12 mM GABA in bath, arrow).
Cell Culture and Preparation. […] Cells were grown in Dulbecco's Modified Eagle Medium (DMEM, high glucose) supplemented with 10% fetal bovine serum (FBS) and 1% antibiotics. The cells were plated on 12 mm cover slips 48 hrs prior to the electrophysiology measurements. The cells on the cover slips were incubated in HBSS (with calcium and magnesium) at room temperature for 10 min prior to measurements. The cover slips were subsequently placed in an open diamond perfision bath (Warner Instruments Corp., RC-22C) positioned on an upright microscope (Nikon eclipse E600FN, 40× water-immersion lens, Burleigh Gibraltar fixed-stage platform) located atop a vibration-isolation table. Cells were routinely perfised with HBSS at a flow rate of 1.0 mllmin.
Electrophysiology. Membrane potential measurements were recorded with an Axon AxoClamp-2A amplifier equipped with a headstage for high resistance electrodes (Axon HS2-XO.OlMU) and Digidata 1322A digitizer (Axon Instruments/Molecular Devices, Sunnyvale, Calif.). Experimental protocols were controlled and data acquired by a personal computer using the Clampex 8.2 software (Axon Instruments). CNPs were inserted into a standard electrode holder until the metal wire of the holder came in contact with the inner carbon film of the CNP. A slight positive pressure was applied through the holder's perfixion port to keep external solution from filling the hollow CNP by capillarity. A micromanipulator (Narishige MHW-3) was used to manipulate and position the CNP electrodes during the electrophysiology measurements. […] Recorded electrical measurements were not adjusted to compensate for differences in extracellular and intracellular junction potentials.

HT-22 cells = experiment: CNP-recorded membrane potential of HT-22 cells during ionic (K+) enrichment; assay type: cell-based, mouse; conditions: for depolarization: KCl added to bath
Description: Because the cell membrane is highly permeable to potassium ions (K^+), an increase or decrease in extracellular K+ concentration will, respectively, cause a resting cell to depolarize (membrane potential becoming more positive) or hyperpolarize (membrane potential becoming more negative). Utilizing CNPs, variations in membrane potential were monitored over tens of minutes. FIG. 8A is a recording of membrane potential from an HT-22 cell during perfusion intervals with normal HBSS and K+-enriched HBSS (additional 5 mM K^+). […] After approximately 2 min at higher extracellular K^+, the cell was perfused with normal HBSS and the cell slowly returned to its RMP.
Next, a CNP was used to measure changes in membrane potential during repetitive extracellular administration of KCl [FIG. 8B]. After penetrating the cell, as indicated by the arrow in FIG. 8B, the CNP measured a stable RMP under normal HBSS perfusion (Emp=−68 mV). […] Under constant perfusion in normal HBSS, the membrane potential returned to its original value after […]. The results were reproducible with high fidelity.
FIG. 8C is a representation of potential variations as a function of time during the administration of HBSS and the varied K+-enrichment of HBSS (additional 5 and 15 mM K^+). […] As normal HBSS perfusion brought the bath back to its initial K+ concentration, the cell returned to its RMP in ˜90 seconds.
Lastly, CNPs were used to electrically record a cell response to sequential pharmacological stimulation and ionic enrichment. FIG. 10B represents the opposing membrane responses to such stimuli over time. […] Once the GABA was washed away under constant HBSS perfision, the cell returned to its RMP in 60 sec. […] As excess KCl was washed away under constant HBSS perfusion, the cell returned again to its RMP after 60 sec.
Cell Culture and Preparation. The mouse hippocampal cell line HT-22 was kindly provided by Dr. David Schubert (The Salk Institute, San Diego, Calif.). Cells were grown in Dulbecco's Modified Eagle Medium (DMEM, high glucose) supplemented with 10% fetal bovine serum (FBS) and 1% antibiotics. The cells were plated on 12 mm cover slips 48 hrs prior to the electrophysiology measurements. The cells on the cover slips were incubated in HBSS (with calcium and magnesium) at room temperature for 10 min prior to measurements. The cover slips were subsequently placed in an open diamond perfision bath (Warner Instruments Corp., RC-22C) positioned on an upright microscope (Nikon eclipse E600FN, 40× water-immersion lens, Burleigh Gibraltar fixed-stage platform) located atop a vibration-isolation table. Cells were routinely perfised with HBSS at a flow rate of 1.0 mllmin.
Electrophysiology. Membrane potential measurements were recorded with an Axon AxoClamp-2A amplifier equipped with a headstage for high resistance electrodes (Axon HS2-XO.OlMU) and Digidata 1322A digitizer (Axon Instruments/Molecular Devices, Sunnyvale, Calif.). Experimental protocols were controlled and data acquired by a personal computer using the Clampex 8.2 software (Axon Instruments). CNPs were inserted into a standard electrode holder until the metal wire of the holder came in contact with the inner carbon film of the CNP. A slight positive pressure was applied through the holder's perfixion port to keep external solution from filling the hollow CNP by capillarity. A micromanipulator (Narishige MHW-3) was used to manipulate and position the CNP electrodes during the electrophysiology measurements. All the electrical measurements were carried out versus an AgIAgCl reference electrode submerged in HBSS in discontinuous current clamp @CC) mode, at zero current, with no capacitance compensation. The CNP potential was nulled (+I-2 mV) with the amplifier offset potential during immersion in HBSS before all electrical measurements. Recorded electrical measurements were not adjusted to compensate for differences in extracellular and intracellular junction potentials.

Row | Structure (SMILES) | hyperpolarization from the RMP (GABAA receptor; RMP -57 mV, FIG. 10B) [mV] | hyperpolarization from the RMP (GABAA receptor; normal HBSS perfusion, RMP -53 mV, FIG. 10A) [mV] | time for cell to return to its RMP (GABAA receptor; after 12 mM GABA washed away, FIG. 10B) [s] | time for cell to return to its RMP (GABAA receptor; after 12 mM GABA, FIG. 10A) [s] | depolarization (HT-22 cells; additional 5 mM K+, RMP -57 mV, FIG. 8C) [mV] | depolarization (HT-22 cells; additional 15 mM K+, RMP -57 mV, FIG. 8C) [mV] | depolarization (HT-22 cells; additional 15 mM K+, after GABA washout, RMP -57 mV, FIG. 10B) [mV] | depolarization (HT-22 cells; additional 25 mM K+, RMP -68 mV, FIG. 8B) [mV] | time for cell to return to its RMP (HT-22 cells; after additional 5 mM K+, normal HBSS perfusion, FIG. 8C) [s] | time for cell to return to its RMP (HT-22 cells; after additional 15 mM K+, FIG. 8C) [s] | time for cell to return to its RMP (HT-22 cells; after additional 15 mM K+, constant HBSS perfusion, FIG. 10B) [s]
1 | NCCCC(=O)O [GABA, Y-aminobutyric acid] | 12 | 10 | 60 | 30 | – | – | – | – | – | – | –
2 | [Cl-].[K+] [KCl, Potassium chloride] | – | – | – | – | 10 | 30 | 25 | 40 | ~90 | ~90 | 60
